# The supplement of paper PMC3493320
# Tested on: NCI-H295R
# Test: IC50 (antiproliferative, ATP content)
# Details: 48 h
# Procedure, shortened: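 Adrenocortical carcinoma cells (1500 per well) were seeded in serum-free ITS-supplemented DMEM in 1536-well plates and cultured overnight. Library compounds were then pin-transferred at 8 final concentrations from 0.6 nM to 46 µM, and plates were kept 48 h at 37 °C, 5% CO2. ATP was read as CellTiter-Glo luminescence after 20 min at room temperature and normalised to vehicle (0%) and positive control (100% inhibition). IC50 came from four-parameter logistic fits; compounds with no concentration response were recorded as above the top dose.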
row,SMILES,IC50
1,O=C(Nc1ccc(O)cc1)c1ccccc1O,> 46 µM
2,O=C1C(CCS(=O)c2ccccc2)C(=O)N(c2ccccc2)N1c1ccccc1 (stereo unspecified),> 46 µM
3,CNC(=O)OCC[N+](C)(C)C.[Cl-],> 46 µM
4,CC(C)NC[C@@H](O)COc1cccc2ccccc12,> 46 µM
5,CC(=O)NCCCCCC(=O)O,> 46 µM
6,Cn1c(=O)c2c(ncn2C)n(C)c1=O.O=C(O)CC(O)(CC(=O)O)C(=O)O,> 46 µM
7,C#C[C@]1(O)CC[C@H]2[C@@H]3CCC4=C(CCC(=O)C4)[C@H]3CC[C@@]21C,> 46 µM
8,O=S(=O)(O)O.[2H]C([2H])([2H])[C@H](N)Cc1ccccc1.[2H]C([2H])([2H])[C@H](N)Cc1ccccc1,> 46 µM
9,CC1CC(O)CC(C)(C)C1 (stereo unspecified),> 46 µM
10,CCCCCCCCCCCCCCCC(=O)OCC(COC(=O)CCCCCCCCCCCCCCC)OC(=O)CCCCCCCCCCCCCCC,> 46 µM
11,CC(=O)Oc1cc(C(F)(F)F)ccc1C(=O)O,> 46 µM
12,CN(C)c1nc(N(C)C)nc(N(C)C)n1,> 46 µM
13,N=C(N)NN.N=C(N)NN.O=S(=O)(O)O,> 46 µM
14,O=C(O)Cc1cn(-c2ccccc2)nc1-c1ccc(Cl)cc1,> 46 µM
15,CN1CCC[C@@H]1CCO[C@](C)(c1ccccc1)c1ccc(Cl)cc1.O=C(O)/C=C/C(=O)O,> 46 µM
16,N[C@@H](COP(=O)(O)O)C(=O)O,> 46 µM
17,CO/N=C(\C(=O)N[C@@H]1C(=O)N2C(C(=O)O)=C(Cn3ccc(=N)n3CCO)CS[C@H]12)c1csc(N)n1.O=S(=O)(O)O,> 46 µM
18,COc1ccc(C2C(=O)c3ccccc3C2=O)cc1,> 46 µM
19,CNCCCC1c2ccccc2C=Cc2ccccc21.Cl,> 46 µM
20,O=C(N/N=C/c1ccc([N+](=O)[O-])o1)c1cc([N+](=O)[O-])cc([N+](=O)[O-])c1O,> 46 µM
21,C[C@H](NCCc1ccc(O)cc1)[C@H](O)c1ccc(O)cc1.Cl,> 46 µM
22,O=C(CC)O[C@@]1([C@@]2=CC=CC=C2)[C@H](C)CN(C)CC1,> 46 µM
23,Cc1ccnc(NS(=O)(=O)c2ccc(N)cc2)n1,> 46 µM
24,C/14=C(/C[C@H]([C@H]2[C@H]3[C@](CC[C@H]\12)([C@@](C#C)(O)CC3)C)C)CC(CC4)=O,> 46 µM
25,c1ccc(-n2cnnn2)cc1,> 46 µM
26,[NH2][Pt]1([NH2])[O]CC(=O)[O]1,> 46 µM

row,SMILES,IC50
1,c1ccc2sc(SN3CCOCC3)nc2c1,> 46 µM
2,O=C1CCC(c2ccccc2)(C2CCN(Cc3ccccc3)CC2)C(=O)N1 (stereo unspecified),> 46 µM
3,O=C1O[C@@H]3CCN2C\C=C(\COC(=O)[C@](C)(O)[C@](C)(O)[C@H]1C)[C@@H]23,> 46 µM
4,Cl.Cn1c(NCCN(CCO)CCCc2ccc([N+](=O)[O-])cc2)cc(=O)n(C)c1=O,> 46 µM
5,CCc1ncnc2cc(OC)c(OC)cc12,> 46 µM
6,Cc1ccc(C(C)(C)c2ccc(C)cc2)cc1,> 46 µM
7,CN1[C@@H]2CC[C@H]1C[C@@H](OC(=O)C(CO)c1ccccc1)C2 (stereo partly specified),> 46 µM
8,N=C\2/N=C3/O[C@H]1[C@H](O)[C@@H](CO)O[C@H]1N3/C=C/2,> 46 µM
9,CCCCC[C@H](O)/C=C/[C@@H]1[C@H]2C/C(=C/CCCC(=O)[O-])O[C@H]2C[C@H]1O.[Na+],> 46 µM
10,CCCCCCCCCCCCCCCC(=O)O,> 46 µM
11,C[C@]12CC[C@@H]3c4ccc(O)cc4CC[C@H]3[C@@H]1CC[C@@H]2OP(=O)(O)O,> 46 µM
12,NCCCCCC(=O)O,> 46 µM
13,O=C3N1/C(=C(/C)CS[C@@H]1[C@@H]3NC(=O)[C@H](N)c2ccccc2)C(O)=O,> 46 µM
14,COc1ccc2c(c1OC)C(=O)O[C@@H]2[C@H]1c2c(cc3c(c2OC)OCO3)CCN1C,> 46 µM
15,Cc1cccc(C)c1NC(=O)CN1CCN(CCCC(c2ccc(F)cc2)c2ccc(F)cc2)CC1,> 46 µM
16,O=[C@@](OC)[C@H]([C@H]3OC)[C@@]2([H])C[C@](N4C[C@]([H])2C[C@H]3OC(C=CC6=CC(OC)=C(OC)C(OC)=C6)=O)([H])C1=C(CC4)C(C=C5)=C(C=C5OC)N1,> 46 µM
17,CO[C@H]1C[C@H](O[C@H]2[C@H](C)[C@@H](O[C@@H]3O[C@H](C)C[C@H](N(C)C)[C@H]3OC(C)=O)[C@@H](C)C[C@]3(CO3)C(=O)[C@H](C)[C@@H](OC(C)=O)[C@@H](C)[C@@H](C)OC(=O)[C@@H]2C)O[C@@H](C)[C@@H]1OC(C)=O,> 46 µM
18,NC(Cc1ccc(Cl)cc1)C(=O)O (stereo unspecified),> 46 µM
19,CCN(CC)C(=O)Nc1ccc(OCC(O)CNC(C)(C)C)c(C(C)=O)c1.Cl (stereo unspecified),> 46 µM
20,Cc1cc(C(C)(C)C)cc(C)c1CC1=NCCN1.Cl,> 46 µM
21,CCOC(N)=O,> 46 µM
22,Cc1nc2c([nH]1)c(=O)n(C)c(=O)n2Cc1ccco1,> 46 µM
23,Cc1ccc(O)c(-n2nc3ccccc3n2)c1,> 46 µM
24,Nc1nccs1,> 46 µM
25,F[C@]1([C@](C[C@@H]3C)([H])[C@@]4([H])[C@]([C@@](CC4)(O)[C@@](C)=O)(C)C[C@@H]1O)[C@](C=C2)(C)C3=CC2=O,> 46 µM
